Results reported in patent US5589364A, “Recombinant production of biologically active peptides and proteins” (priority 1994, dated 1996).
Ends that are not written are not given here.

Legend:
[1] = tested on: E. coli ATCC strain 25922; test: Bacterial growth inhibition assay, aliquots spotted onto a bacterial lawn; type: cell-based, Escherichia coli; settings: purified recombinant peptide at 0.4 ug/mL; half-strength trypticase soy broth agar with 50 mM sodium fluoride
Procedure: Small aliquots of recombinant MSI-556 and other HPLC fractions from the CNBr digest of MBP-MSI-556 fusion protein were spotted onto a lawn of E. coli ATCC strain 25922 grown on a half-strength trypticase soy broth agar plate containing 50 mM sodium fluoride.

[2] = tested on: reference strains Staphylococcus aureus ATCC 29213, Escherichia coli ATCC 25922, and Pseudomonas aeruginosa ATCC 27853; test: Antimicrobial susceptibility assay as in Example 1, organism not specified per result; type: cell-based
Procedure: Antibacterial susceptibility testing was performed using a microdilution broth assay according to the guidelines of the National Committee for Clinical Laboratory Standards (NCCLS) Document M7-A2 (NCCLS, 1990). For preparation of peptide stock solutions, the peptide powder as an acetate salt was weighed on an analytical balance and transferred to a polypropylene tube. Stock solutions were prepared at a concentration of 1.024 mg/mL (or, in the case of natural polyphemusin, 1.00 mg/mL) by dissolving the powder in autoclaved (121° C., 20 psi, 20 minutes) deionized water. […]
The bacteria used in the antimicrobial susceptibility testing are the quality control reference strains Staphylococcus aureus ATCC 29213, Escherichia coli ATCC 25922, and Pseudomonas aeruginosa ATCC 27853. Inoculum for each reference strain was prepared by taking a sample of bacteria from a 16-20 hour plate culture and inoculating into 5 mL of MHB (BBL® catalog number 95834) to an absorbance reading of approximately 0.02 at 600 nm (A600) on a Beckman DU®-64 spectrophotometer. The culture was incubated at 35°-37° C. with shaking in a New Brunswick incubator shaker (Model G25) and the growth monitored spectrophotometrically until it reached A600 of approximately 0.6; this absorbance represented approximately 1×10^8 colony-forming units per milliliter (CFUs/mL). […]
This value was determined using the unaided eye. […]

[3] = tested on: Escherichia coli ATCC 25922; test: Microdilution broth antibacterial susceptibility assay (NCCLS M7-A2), MIC; type: cell-based; settings: lowest concentration completely inhibiting growth; MHB, 16-20 hours, 35-37 C; tested in duplicate
Procedure: (§1) Antibacterial susceptibility testing was performed using a microdilution broth assay according to the guidelines of the National Committee for Clinical Laboratory Standards (NCCLS) Document M7-A2 (NCCLS, 1990). For preparation of peptide stock solutions, the peptide powder as an acetate salt was weighed on an analytical balance and transferred to a polypropylene tube. Stock solutions were prepared at a concentration of 1.024 mg/mL (or, in the case of natural polyphemusin, 1.00 mg/mL) by dissolving the powder in autoclaved (121° C., 20 psi, 20 minutes) deionized water. The peptide solution was used immediately, stored for up to ten days at 4° C., or stored longterm at -70° C. in 1 mL aliquotes in polypropylene cryovials. Mueller-Hinton broth (MHB)(BBL® catalog number 11443) was used in microtiter plates for diluting peptide stock solutions and for diluting each bacterial inoculum. MHB 5 mL prepared tubes (BBL® catalog number 95834) were used to culture an overnight plate of bacteria to the logarithmic phase of growth for inoculating the microtiter plates.
(§2) The bacteria used in the antimicrobial susceptibility testing are the quality control reference strains Staphylococcus aureus ATCC 29213, Escherichia coli ATCC 25922, and Pseudomonas aeruginosa ATCC 27853. Inoculum for each reference strain was prepared by taking a sample of bacteria from a 16-20 hour plate culture and inoculating into 5 mL of MHB (BBL® catalog number 95834) to an absorbance reading of approximately 0.02 at 600 nm (A600) on a Beckman DU®-64 spectrophotometer. The culture was incubated at 35°-37° C. with shaking in a New Brunswick incubator shaker (Model G25) and the growth monitored spectrophotometrically until it reached A600 of approximately 0.6; this absorbance represented approximately 1×10^8 colony-forming units per milliliter (CFUs/mL).
(§3) The culture was then diluted to approximately 1×10^6 CFUs/mL in autoclaved MHB (BBL® catalog number 11443) to produce the parent inoculum. A sample of the parent inoculating culture was diluted in 3 mM phosphate buffer (pH 7.2) through a series of 1:10 dilutions and the 10^-4 and 10^-5 dilutions were plated, incubated overnight at 35°-37° C., and counted the next day to verify inoculum density. Microtiter plates (Corning manufacturer number 2585096) were prepared with the use of a Beckman Biomek® 1000 automated laboratory workstation in combination with manual techniques. The microtiter plate was filled with diluent broth using the Biomek® 1000 instrument. Peptide stock solution was manually added to the top drug well of the microtiter plate using a Rainin Pipetman®, Model P-200. The peptide was serially diluted in twofold dilutions using the Biomek® 1000 instrument. One hundred microliters of the standardized bacterial inoculum was added to every well of the microtiter plates (except the blanks) using an Eppendorf Repeater® Model 4780 pipet equipped with an Eppendorf 5 mL combitip (catalog number 22 26 130-4). All peptides were tested in duplicate. In addition to the test peptide, three standard peptides (Magainin 2, MSI-63, and MSI-98) and a non-treated growth control were included to validate the assay. The final concentrations of peptide solution in the microtiter wells ranged from 0.25 ug/mL to 256 ug/mL. The final concentration of bacteria in the microtiter wells was 1-5×10^5 CFUs/mL. The final solution volume in each well was 200 uL. The microtiter plates were incubated overnight (16-20 hours) at 35°-37° C. after preparation in a Precision mechanical convection oven incubator Model 30M.
(§4) This value was determined using the unaided eye. In addition, for a permanent record, the absorbance at 630 nm was read on a Dynatech MR5000 Microplate Reader, Version 2.7, and a printed record was generated on an Epson LX800 dot-matrix printer.

[4] = tested on: Staphylococcus aureus ATCC 29213; test: as above; type: cell-based; settings: lowest concentration completely inhibiting growth; MHB, 16-20 hours, 35-37 C; tested in duplicate
Procedure: as §1, §2, §3, §4

[5] = tested on: Pseudomonas aeruginosa ATCC 27853; test: as above; type: cell-based; settings: lowest concentration completely inhibiting growth; MHB, 16-20 hours, 35-37 C; tested in duplicate
Procedure: as §1, §2, §3, §4

| Substance | Bacterial lawn growth inhibition as judged visually [1] | Spectrum of antibacterial activity (summary of Table I) ([2]; unamidated peptides, conclusion from MIC values) | Minimum Inhibitory Concentration, Test Organism: E. coli [3] [µg/mL] | Minimum Inhibitory Concentration, Test Organism: Staph. aureus [4] [µg/mL] | Minimum Inhibitory Concentration, Test Organism: Pseudo. aeruginosa [5] [µg/mL] | Bioactivity in antimicrobial susceptibility assay ([2]; HPLC-purified recombinant peptide, without reformation of the two disulfide bridges) |
| --- | --- | --- | --- | --- | --- | --- |
| NH2 --GIGKFLKKAKKFGKAGVKILKKG--OH [MSI-556] | significant antimicrobial activity | broadly active against both gram-negative and gram-positive human pathogenic bacteria | 4 to 16 | 16 | 4 | – |
| NH2 --RRWCFRVCYRGFCYRKCRG--OH (H-RRWCFRVCYRGFCYRKCRG-OH; cysteine pairing not given here) [Lim1] | – | – | – | – | – | bioactive |
| GIGKFLHSAKKFGKAFVGEIMNS [Native Magainin 2, reference compound] | – | – | 64 to 128 | 256 | 256 | – |
| GIGKFLKKAKKFGKAFVKILKK-NH2 [MSI-78] | – | – | 8 | 8 to 16 | 4 to 8 | – |
